In test [1] the test system is Escherichia coli. Kind of test: Minimal inhibitory concentration against Escherichia coli (Range is 50-100 uM). The class given is functional.
Test [2] deals with Staphylococcus aureus. Kind of test: Minimal inhibitory concentration against Staphylococcus aureus (Range is 25-50 uM). The test is classed as functional.
Test [3] deals with Staphylococcus aureus. Kind of test: In vitro minimal inhibitory concentration against Staphylococcus aureus. The test is classed as functional.
In test [4] the test system is Escherichia coli. Kind of test: Minimal inhibitory concentration against Escherichia coli. The test is classed as functional.
Another test relates to Streptococcus pyogenes. Kind of test: Minimal inhibitory concentration against gram positive Streptococcus pyogenes 49399 strain (Range is 3-6 uM). The test is classed as functional.
The subject of test [5] is Staphylococcus aureus. Kind of test: Minimal inhibitory concentration against Staphylococcus aureus (Range is 6-12 uM). The test is classed as functional.
For a further test, the system named is Streptococcus pneumoniae. Kind of test: Minimal inhibitory concentration against gram positive Streptococcus pneumoniae 6303 strain (Range is 6-12 uM). The test is classed as functional.
Another test relates to Enterococcus hirae. Kind of test: Minimal inhibitory concentration against gram positive Enterococcus hirae 29212 strain (Range is 1-3 uM). The class given is functional.
For test [6], the system named is Staphylococcus aureus. Kind of test: Minimal inhibitory concentration against gram positive Staphylococcus aureus 13709 strain (Range is 6-12 uM). The class given is functional.
Another test deals with Klebsiella pneumoniae. Kind of test: Minimal inhibitory concentration against gram negative Klebsiella pneumoniae 13383 strain (Range is 6-12 uM). The test is classed as functional.
Test [7] concerns Escherichia coli. Kind of test: Minimal inhibitory concentration against Escherichia coli (Range is 12-25 uM). The test is classed as functional.
In test [8] the test system is Escherichia coli. Description: Minimal inhibitory concentration against gram negative Escherichia coli 25922 strain (Range is 12-25 uM). The class given is functional. Particulars: ATCC25922.
Another test concerns Bacteria. Kind of test: Inhibitory activity against bacteria in the transcription/translation assay. The class given is functional, organism-based.
In the next test the test system is Pseudomonas aeruginosa. Kind of test: Minimal inhibitory concentration against gram negative Pseudomonas aeruginosa 25416 strain (Range is 12-25 uM). The class given is functional.
The subject of test [9] is Escherichia coli. Description: Minimal inhibitory concentration against Escherichia coli (Range is 25-50 uM). The class given is functional.
Test [10] deals with Staphylococcus aureus. Description: Minimal inhibitory concentration against Staphylococcus aureus (Range is 12-25 uM). The class given is functional.
Test [11] has as its system Staphylococcus aureus. Kind of test: Minimal inhibitory concentration against Staphylococcus aureus (Range is 50-100 uM). The test is classed as functional.

The structures appear in SMILES notation. Values after ≈ are worked out from the molar mass of the structure shown.

Among the data in ChEMBL document CHEMBL1147597, “Synthesis and biological evaluations of novel benzimidazoles as potential antibacterial agents” (Bioorg Med Chem Lett, 2004) are MIC and IC50 values, retold here.

As usually defined, the MIC is the least concentration at which growth counts as inhibited. A high value points to weaker potency. For orientation: IC50 means the concentration needed to halve the response being measured. Lower therefore signals higher potency.

As to `O=C(Cn1c(C2CCNCC2)nc2cc(Cl)c(Cl)cc21)NNC(=O)Nc1ccc2c(c1)OCO2`, the values for the minimum inhibitory concentration (MIC) against Escherichia coli [1] and against Staphylococcus aureus [2] were 100 µM (≈ 50.5 µg/mL) and 50 µM (≈ 25.3 µg/mL), respectively.

Take `O=C1c2cc3ccccc3cc2C(=O)N1CCCCCn1c(C2CCNCC2)nc2cc(Cl)c(Cl)cc21`: the minimum inhibitory concentration (MIC) against Staphylococcus aureus [3] and with Escherichia coli [4] was over 100 µM throughout.

As for `Clc1cc2nc(C3CCNCC3)n(CCCCCCn3c(C4CCNCC4)nc4cc(Cl)c(Cl)cc43)c2cc1Cl`, the MIC against Streptococcus pyogenes turned out to be 6 µM (≈ 3.73 µg/mL); against Staphylococcus aureus [5], 12 µM (≈ 7.47 µg/mL); in the test on Streptococcus pneumoniae, 12 µM (≈ 7.47 µg/mL); against Enterococcus hirae it was 3 µM (≈ 1.87 µg/mL); against Staphylococcus aureus [6], 12 µM (≈ 7.47 µg/mL); with Klebsiella pneumoniae, 12 µM (≈ 7.47 µg/mL). Further, the minimum inhibitory concentration (MIC) with Escherichia coli [7], against Escherichia coli [8] and in the test on Pseudomonas aeruginosa was 25 µM (≈ 15.6 µg/mL) in each case. Also, the IC50 in the test on Bacteria was over 100 µM.

`Clc1cc2nc(C3CCNCC3)n(CCCCSc3[nH]cnc4ncnc3-4)c2cc1Cl`: the minimal inhibitory concentration (MIC) in the test with Staphylococcus aureus [3] and in the test with Escherichia coli [4] was over 100 µM throughout.

Turning to `O=C(Cn1c(C2CCNCC2)nc2cc(Cl)c(Cl)cc21)NNC(=O)Nc1ccc([N+](=O)[O-])cc1`, the values for the minimal inhibitory concentration (MIC) with Escherichia coli [4] and against Staphylococcus aureus [2] were over 100 µM and 50 µM (≈ 25.3 µg/mL), respectively.

On to `O=C(Cn1c(C2CCNCC2)nc2cc(Cl)c(Cl)cc21)NNC(=O)Nc1ccccc1-c1ccccc1`, for which the minimal inhibitory concentration (MIC) in the test with Escherichia coli [9] worked out at 50 µM (≈ 26.9 µg/mL); against Staphylococcus aureus [10], 25 µM (≈ 13.4 µg/mL).

Take `O=C1c2ccc([N+](=O)[O-])cc2C(=O)N1CCCCCn1c(C2CCNCC2)nc2cc(Cl)c(Cl)cc21`: the minimal inhibitory concentration (MIC) is over 100 µM with Staphylococcus aureus [3] and 100 µM (≈ 53 µg/mL) against Escherichia coli [1].

In the case of `O=C1c2ccccc2C(=O)N1CCn1c(C2CCNCC2)nc2cc(Cl)c(Cl)cc21`, the minimum inhibitory concentration (MIC) against Staphylococcus aureus [3] and in the test with Escherichia coli [4] was over 100 µM throughout.

Regarding `O=C(Cn1c(C2CCNCC2)nc2cc(Cl)c(Cl)cc21)N/N=C/c1cccc(OC(F)(F)F)c1`, the minimal inhibitory concentration (MIC) in the test with Escherichia coli [4] is over 100 µM; with Staphylococcus aureus [2], 50 µM (≈ 25.7 µg/mL).

For `O=C1CCC(=O)N1CCCCCn1c(C2CCNCC2)nc2cc(Cl)c(Cl)cc21`, the minimal inhibitory concentration (MIC) in the test on Staphylococcus aureus [3] and in the test on Escherichia coli [4] was over 100 µM each time.

With `O=C(O)CC/N=C(\S)NNC(=O)Cn1c(C2CCNCC2)nc2cc(Cl)c(Cl)cc21`, the MIC in the test with Staphylococcus aureus [3] and in the test on Escherichia coli [4] was over 100 µM throughout.

For `O=C(Cn1c(C2CCNCC2)nc2cc(Cl)c(Cl)cc21)N/N=C/c1ccc2c(c1)OCCO2`, the minimum inhibitory concentration (MIC) in the test with Staphylococcus aureus [11] was 100 µM (≈ 48.8 µg/mL); in the test with Escherichia coli [4], over 100 µM.

In the case of `O=C(Cn1c(C2CCNCC2)nc2cc(Cl)c(Cl)cc21)N/N=C/c1ccncc1`, the MIC in the test with Staphylococcus aureus [3] and in the test on Escherichia coli [4] was over 100 µM in each case.

With `Clc1cc2nc(C3CCNCC3)n(CCCCCN3Cc4ccccc4C3)c2cc1Cl`, the minimal inhibitory concentration (MIC) worked out at 50 µM (≈ 22.9 µg/mL) with Escherichia coli [9] and 100 µM (≈ 45.7 µg/mL) with Staphylococcus aureus [11].

For the molecule `Clc1cc2nc(C3CCNCC3)n(CCCCCn3cnnc3)c2cc1Cl`, the minimal inhibitory concentration (MIC) against Staphylococcus aureus [3] and in the test with Escherichia coli [4] was over 100 µM each time.

For the molecule `O=C1c2cc(Cl)c(Cl)cc2C(=O)N1CCCCCn1c(C2CCNCC2)nc2cc(Cl)c(Cl)cc21`, the MIC amounted to 25 µM (≈ 13.9 µg/mL) in the test on Staphylococcus aureus [10] and 100 µM (≈ 55.4 µg/mL) in the test with Escherichia coli [1].

In the case of `O=C1c2cc(Cl)c([N+](=O)[O-])cc2C(=O)N1CCCCCn1c(C2CCNCC2)nc2cc(Cl)c(Cl)cc21`, the MIC against Escherichia coli [1] amounted to 100 µM (≈ 56.5 µg/mL); against Staphylococcus aureus [2], 50 µM (≈ 28.2 µg/mL).

For the molecule `O=C(NCCCCCn1c(C2CCNCC2)nc2cc(Cl)c(Cl)cc21)c1ccccc1`, the MIC against Staphylococcus aureus [3] and against Escherichia coli [4] was over 100 µM in each case.

On to `O=S(=O)(NCCCCCn1c(C2CCNCC2)nc2cc(Cl)c(Cl)cc21)c1ccccc1`, for which the minimum inhibitory concentration (MIC) with Staphylococcus aureus [3] and in the test on Escherichia coli [4] was over 100 µM each time.

Turning to `CN(C)c1ccc(N/C(S)=N/NC(=O)Cn2c(C3CCNCC3)nc3cc(Cl)c(Cl)cc32)cc1`, the MIC in the test with Staphylococcus aureus [11] was 100 µM (≈ 52 µg/mL); against Escherichia coli [4], over 100 µM.

`O=C1c2cccc([N+](=O)[O-])c2C(=O)N1CCCCCn1c(C2CCNCC2)nc2cc(Cl)c(Cl)cc21`: the MIC with Staphylococcus aureus [3] and against Escherichia coli [4] was over 100 µM throughout.

Consider `O=C(Cn1c(C2CCNCC2)nc2cc(Cl)c(Cl)cc21)N/N=C/c1ccc[nH]1`, for which the MIC with Staphylococcus aureus [10] is 25 µM (≈ 10.5 µg/mL); in the test on Escherichia coli [4] it was over 100 µM.

Regarding `O=C(Cn1c(C2CCNCC2)nc2cc(Cl)c(Cl)cc21)NNC(=S)NCCCN1CCOCC1`, the minimum inhibitory concentration (MIC) in the test on Staphylococcus aureus [3] and against Escherichia coli [4] was over 100 µM in each case.
